Experimental data published in the NIST ThermoML archive (doi:10.1021/je049762q).
Numbers after ± are expanded uncertainties.

Assay: molar heat capacity at constant pressure
Conditions: 101.33 kPa, Crystal 3

Clc1ccc(Cl)cc1 [1,4-dichlorobenzene]
Conditions | molar heat capacity at constant pressure [J/K/mol]
5.11 K | 0.29 ± 0.03
6.43 K | 0.42 ± 0.03
7.21 K | 0.83 ± 0.04
7.89 K | 1.18 ± 0.04
9.58 K | 2.1 ± 0.05
10 K | 2.33 ± 0.06
11.66 K | 3.22 ± 0.07
13.08 K | 4.5 ± 0.09
14.5 K | 6.12 ± 0.11
15 K | 6.7 ± 0.11
15.94 K | 7.81 ± 0.12
18.49 K | 10.86 ± 0.15
19 K | 11.19 ± 0.15
20 K | 12.69 ± 0.17
20.21 K | 12.96 ± 0.17
21.65 K | 14.62 ± 0.17
22.92 K | 16.12 ± 0.18
24.05 K | 17.45 ± 0.19
25 K | 18.52 ± 0.19
25.09 K | 18.62 ± 0.19
26.05 K | 19.66 ± 0.19
28.53 K | 21.78 ± 0.18
30 K | 23.27 ± 0.17
32.77 K | 26.1 ± 0.19
34.99 K | 28.16 ± 0.19
36.99 K | 29.91 ± 0.2
38.82 K | 31.33 ± 0.21
40 K | 32.27 ± 0.21
42.09 K | 33.94 ± 0.22
44.35 K | 35.66 ± 0.22
46.46 K | 37.19 ± 0.23
48.44 K | 38.2 ± 0.23
50 K | 39.36 ± 0.24
52.09 K | 40.68 ± 0.24
53.8 K | 41.66 ± 0.25
55.44 K | 42.56 ± 0.25
57.02 K | 43.48 ± 0.25
58.55 K | 44.32 ± 0.26
60 K | 45.13 ± 0.26
60.03 K | 45.14 ± 0.26
63.79 K | 47.24 ± 0.27
66.94 K | 48.83 ± 0.28
69.94 K | 50.35 ± 0.28
70 K | 50.38 ± 0.28
72.81 K | 51.62 ± 0.29
80 K | 55.34 ± 0.3
82.41 K | 56.53 ± 0.31
85.29 K | 57.82 ± 0.31
88.14 K | 59.02 ± 0.32
90 K | 59.86 ± 0.52
91.01 K | 60.3 ± 0.52
93.9 K | 61.52 ± 0.52
96.8 K | 62.72 ± 0.53
99.71 K | 63.94 ± 0.53
100 K | 64.06 ± 0.53
102.62 K | 65.39 ± 0.53
103.2 K | 65.58 ± 0.53
105.55 K | 66.59 ± 0.53
107.33 K | 67.31 ± 0.53
108.49 K | 67.79 ± 0.54
110 K | 68.42 ± 0.54
111.35 K | 68.99 ± 0.54
111.43 K | 69.01 ± 0.54
114.39 K | 70.21 ± 0.54
115.28 K | 70.59 ± 0.54
117.35 K | 71.41 ± 0.54
119.12 K | 72.17 ± 0.54
120 K | 72.49 ± 0.55
120.32 K | 72.62 ± 0.55
122.89 K | 73.69 ± 0.55
123.3 K | 73.82 ± 0.55
126.28 K | 75.05 ± 0.55
126.6 K | 75.16 ± 0.55
129.27 K | 76.26 ± 0.55
130 K | 76.54 ± 0.56
130.24 K | 76.63 ± 0.55
132.26 K | 77.49 ± 0.56
133.83 K | 78.06 ± 0.56
135.26 K | 78.7 ± 0.56
137.36 K | 79.47 ± 0.56
138.27 K | 79.99 ± 0.56
140 K | 80.56 ± 0.56
140.85 K | 80.87 ± 0.56
141.27 K | 81.11 ± 0.56
144.27 K | 82.33 ± 0.56
147.28 K | 83.54 ± 0.57
147.69 K | 83.58 ± 0.57
150 K | 84.62 ± 0.56
150.29 K | 84.72 ± 0.57
151.05 K | 84.88 ± 0.57
153.31 K | 85.92 ± 0.57
156.33 K | 87.11 ± 0.57
159.35 K | 88.32 ± 0.58
160 K | 88.57 ± 0.57
162.38 K | 89.5 ± 0.58
165.4 K | 90.68 ± 0.58
168.43 K | 91.85 ± 0.58
170 K | 92.45 ± 0.58
171.47 K | 93.01 ± 0.59
177.53 K | 95.43 ± 0.59
180 K | 96.42 ± 0.59
180.53 K | 96.63 ± 0.59
183.51 K | 97.84 ± 0.6
186.47 K | 98.95 ± 0.6
188.91 K | 99.81 ± 0.6
189.41 K | 100.08 ± 0.6
190 K | 100.33 ± 0.6
191.9 K | 101.04 ± 0.6
192.33 K | 101.32 ± 0.6
